In publication PMC4790851, “Iminosugars Inhibit Dengue Virus Production via Inhibition of ER Alpha-Glucosidases—Not Glycolipid Processing Enzymes” (PLoS Neglected Tropical Diseases, 2016):
Read-outs that look alike come from different tables or passages of the source.

Legend:
[1] = biological target: T1, Mouse ER α-glucosidase II (Mus musculus, UniProt Q8BHN3); experiment: In vitro enzyme inhibition, 4MUG hydrolysis; format: biochemical; details: concentration required to inhibit the enzyme to 50% activity
T1 sequence (Q8BHN3 33-944): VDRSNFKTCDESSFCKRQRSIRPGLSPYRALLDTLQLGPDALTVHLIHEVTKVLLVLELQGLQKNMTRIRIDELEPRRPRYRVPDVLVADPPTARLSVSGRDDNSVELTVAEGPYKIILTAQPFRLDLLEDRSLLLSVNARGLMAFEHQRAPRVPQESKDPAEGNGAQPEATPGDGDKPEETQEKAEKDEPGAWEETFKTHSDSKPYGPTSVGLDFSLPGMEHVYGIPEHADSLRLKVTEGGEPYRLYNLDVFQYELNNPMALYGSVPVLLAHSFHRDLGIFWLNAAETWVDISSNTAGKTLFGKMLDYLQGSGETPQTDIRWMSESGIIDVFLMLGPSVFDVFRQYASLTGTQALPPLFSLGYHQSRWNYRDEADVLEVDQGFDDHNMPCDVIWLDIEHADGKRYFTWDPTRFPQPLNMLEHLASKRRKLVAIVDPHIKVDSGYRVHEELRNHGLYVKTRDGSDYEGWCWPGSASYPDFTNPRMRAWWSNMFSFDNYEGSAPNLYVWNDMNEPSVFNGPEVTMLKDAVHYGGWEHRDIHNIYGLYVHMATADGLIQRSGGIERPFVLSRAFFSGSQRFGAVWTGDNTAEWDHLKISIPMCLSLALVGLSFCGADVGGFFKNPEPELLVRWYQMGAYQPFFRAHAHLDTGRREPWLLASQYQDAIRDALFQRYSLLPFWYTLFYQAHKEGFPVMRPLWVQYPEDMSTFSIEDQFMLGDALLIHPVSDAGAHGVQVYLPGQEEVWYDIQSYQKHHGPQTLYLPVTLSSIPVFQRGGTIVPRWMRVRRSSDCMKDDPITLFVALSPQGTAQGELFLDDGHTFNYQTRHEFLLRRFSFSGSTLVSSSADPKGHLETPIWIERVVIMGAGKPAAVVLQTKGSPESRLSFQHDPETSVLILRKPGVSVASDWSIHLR
T1 sequence (O08795 15-521 partner): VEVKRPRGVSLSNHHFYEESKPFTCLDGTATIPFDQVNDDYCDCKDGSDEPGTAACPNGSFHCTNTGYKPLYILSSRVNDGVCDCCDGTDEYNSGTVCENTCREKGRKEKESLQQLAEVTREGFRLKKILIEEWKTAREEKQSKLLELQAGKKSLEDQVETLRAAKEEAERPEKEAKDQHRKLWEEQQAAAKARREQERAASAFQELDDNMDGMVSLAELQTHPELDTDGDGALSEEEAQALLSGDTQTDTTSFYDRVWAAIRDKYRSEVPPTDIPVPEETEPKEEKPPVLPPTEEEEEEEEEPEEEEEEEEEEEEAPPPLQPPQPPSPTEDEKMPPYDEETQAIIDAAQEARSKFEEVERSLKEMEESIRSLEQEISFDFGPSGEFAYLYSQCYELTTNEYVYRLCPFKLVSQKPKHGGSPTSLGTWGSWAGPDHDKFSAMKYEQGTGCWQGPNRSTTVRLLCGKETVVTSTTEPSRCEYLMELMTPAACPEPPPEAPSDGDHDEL
Experimental: Recombinant Mus musculus ER alpha-glucosidase II inhibition was measured by incubating 20 nM enzyme with various concentrations of inhibitors in 100 mM potassium phosphate pH 7.2 at 37 °C for 5 minutes. Activity was measured by addition of 0.25 mM 4-methylumbelliferyl α-D-glucopyranoside (4MUG) (Sigma Aldrich) in black, non-binding surface-treated microplates (Corning). Fluorescence upon hydrolysis of the 4MUG was measured at λex of 355 nm and λem of 460 nm in a M5 multi-mode plate reader (Molecular Devices) at 37 °C, measuring fluorescence every minute for a total of 30 minutes. The initial velocity was fit in the linear range of measurements, and activity was normalized to the uninhibited control in order to plot activity against the inhibitor concentration. A sigmoidal, four-parameter function with a variable slope was used to determine the EC50 values in Prism (GraphPad).

Rat intestinal maltase = experiment: In vitro enzyme inhibition, glucose release from disaccharide; format: biochemical; details: concentration required to inhibit the enzyme to 50% activity
Experimental: Inhibition of glucosidases and glycosidases was detected as previously described. Briefly, assays were performed at the optimum pH of each enzyme, and appropriate disaccharide was provided as substrate for glucosidase release assays. Release of D-glucose was measured using a Glucose B-test (Wako Diagnostics). Appropriate p-nitrophenyl glycoside was added as substrate for additional glycosidase assays, and assays were stopped by adding 400 mM Na2CO3. Release of p-nitrophenol was measured spectrophotometrically at 400 nm.

[2] = system: monosialodihexosylganglioside (GM3) production; experiment: Glycosphingolipid analysis: GM3 levels in MDMΦs by NP-HPLC; format: cell-based, human; details: 48 h, uninfected MDMΦ, normalized to untreated controls, mean ± SD, min. 3 donors
Glucosyltransferase HL60 = biological target: T2, Glucosyltransferase HL60 (Homo sapiens, UniProt Q16739); experiment: In vitro enzyme inhibition; format: biochemical
T2 construct: endogenous in cells; host or cells: HL60
T2 sequence (Q16739 1-394): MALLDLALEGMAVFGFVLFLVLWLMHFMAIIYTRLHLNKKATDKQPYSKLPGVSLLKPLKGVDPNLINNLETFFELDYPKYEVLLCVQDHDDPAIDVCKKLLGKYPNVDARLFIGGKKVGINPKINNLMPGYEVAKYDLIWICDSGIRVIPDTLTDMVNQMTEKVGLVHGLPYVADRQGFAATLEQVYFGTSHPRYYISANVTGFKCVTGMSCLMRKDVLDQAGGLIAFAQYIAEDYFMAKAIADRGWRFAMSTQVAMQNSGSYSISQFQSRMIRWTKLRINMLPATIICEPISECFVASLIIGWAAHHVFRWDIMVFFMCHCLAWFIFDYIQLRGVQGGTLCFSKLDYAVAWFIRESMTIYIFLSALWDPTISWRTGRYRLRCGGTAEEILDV

[3] = biological target: T3, Human lysosome α-galactosidase (Homo sapiens, UniProt P06280); experiment: In vitro enzyme inhibition; format: biochemical
T3 sequence (P06280 32-429): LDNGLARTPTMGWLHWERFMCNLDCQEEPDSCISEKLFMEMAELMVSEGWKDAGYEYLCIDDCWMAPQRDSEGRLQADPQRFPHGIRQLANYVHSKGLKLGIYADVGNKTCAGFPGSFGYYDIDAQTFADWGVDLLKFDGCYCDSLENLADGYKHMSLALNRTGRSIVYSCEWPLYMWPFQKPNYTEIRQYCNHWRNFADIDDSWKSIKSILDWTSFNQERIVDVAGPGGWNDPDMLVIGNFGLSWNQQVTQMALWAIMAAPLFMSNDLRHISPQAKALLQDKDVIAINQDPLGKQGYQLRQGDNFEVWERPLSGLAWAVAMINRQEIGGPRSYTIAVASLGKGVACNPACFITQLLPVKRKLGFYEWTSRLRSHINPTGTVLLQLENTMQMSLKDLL

[4] = biological target: Human lysosome α-glucosidase (Homo sapiens, UniProt P10253); experiment: In vitro enzyme inhibition; format: biochemical
[5] = biological target: T4, Rat intestinal isomaltase (Rattus norvegicus, UniProt P23739); experiment: In vitro enzyme inhibition, glucose release from disaccharide; format: biochemical
T4 construct: from tissue; host or cells: rat intestine

Rat intestinal sucrase = biological target: T5, Rat intestinal sucrase (Rattus norvegicus, UniProt P23739); experiment: as above; format: biochemical
T5 construct: from tissue; host or cells: rat intestine

DENV2 strain 16681 = experiment: In vitro antiviral assay: infectious DENV titer from infected MDMΦs by LLC-MK2 plaque assay; format: cell-based, dengue virus serotype 2; details: Dengue virus, DENV2, LLC-MK2, 48 h, MDMΦs infected with DENV2 MOI 1, drug 48 h, infectious titer by plaque assay; table values with 95% confidence interval in parentheses; read-out: EC50
MDMΦs = experiment: Cytotoxicity, MTS cell proliferation assay; format: cell-based, human
Experimental: Cytotoxicity of compounds was assessed by a cell proliferation assay for metabolic activity using a CellTiter 96 AQueous One Solution Cell Proliferation Assay (Promega) as per the manufacturer’s instructions. Briefly, 20 μl of a solution containing tetrazolium compound [3-(4,5-[…])-5-(3-carboxymethoxyphenyl)-2-(4-sulfophenyl)-2H-tetrazolium; MTS] and electron coupling reagent (phenazine ethosulfate) was added to cells covered or suspended in 100 μl of culture medium in a 96-well plate. Samples were incubated for approximately 4 hours (37°C, 5% CO2), and the absorbance at 490 nm (A490) was measured on a SpectraMax M5 microplate reader (Molecular Devices).

DENV = system: DENV; parameters: method as in PMID 23070155, PMID 23376501, PMID 22020302, PMID 22867971; details: post-exposure therapeutic administration; cited from earlier work
[6] = concentration required to inhibit the enzyme to 50% activity, read-out: IC50

T5 sequence (P23739 whole entry): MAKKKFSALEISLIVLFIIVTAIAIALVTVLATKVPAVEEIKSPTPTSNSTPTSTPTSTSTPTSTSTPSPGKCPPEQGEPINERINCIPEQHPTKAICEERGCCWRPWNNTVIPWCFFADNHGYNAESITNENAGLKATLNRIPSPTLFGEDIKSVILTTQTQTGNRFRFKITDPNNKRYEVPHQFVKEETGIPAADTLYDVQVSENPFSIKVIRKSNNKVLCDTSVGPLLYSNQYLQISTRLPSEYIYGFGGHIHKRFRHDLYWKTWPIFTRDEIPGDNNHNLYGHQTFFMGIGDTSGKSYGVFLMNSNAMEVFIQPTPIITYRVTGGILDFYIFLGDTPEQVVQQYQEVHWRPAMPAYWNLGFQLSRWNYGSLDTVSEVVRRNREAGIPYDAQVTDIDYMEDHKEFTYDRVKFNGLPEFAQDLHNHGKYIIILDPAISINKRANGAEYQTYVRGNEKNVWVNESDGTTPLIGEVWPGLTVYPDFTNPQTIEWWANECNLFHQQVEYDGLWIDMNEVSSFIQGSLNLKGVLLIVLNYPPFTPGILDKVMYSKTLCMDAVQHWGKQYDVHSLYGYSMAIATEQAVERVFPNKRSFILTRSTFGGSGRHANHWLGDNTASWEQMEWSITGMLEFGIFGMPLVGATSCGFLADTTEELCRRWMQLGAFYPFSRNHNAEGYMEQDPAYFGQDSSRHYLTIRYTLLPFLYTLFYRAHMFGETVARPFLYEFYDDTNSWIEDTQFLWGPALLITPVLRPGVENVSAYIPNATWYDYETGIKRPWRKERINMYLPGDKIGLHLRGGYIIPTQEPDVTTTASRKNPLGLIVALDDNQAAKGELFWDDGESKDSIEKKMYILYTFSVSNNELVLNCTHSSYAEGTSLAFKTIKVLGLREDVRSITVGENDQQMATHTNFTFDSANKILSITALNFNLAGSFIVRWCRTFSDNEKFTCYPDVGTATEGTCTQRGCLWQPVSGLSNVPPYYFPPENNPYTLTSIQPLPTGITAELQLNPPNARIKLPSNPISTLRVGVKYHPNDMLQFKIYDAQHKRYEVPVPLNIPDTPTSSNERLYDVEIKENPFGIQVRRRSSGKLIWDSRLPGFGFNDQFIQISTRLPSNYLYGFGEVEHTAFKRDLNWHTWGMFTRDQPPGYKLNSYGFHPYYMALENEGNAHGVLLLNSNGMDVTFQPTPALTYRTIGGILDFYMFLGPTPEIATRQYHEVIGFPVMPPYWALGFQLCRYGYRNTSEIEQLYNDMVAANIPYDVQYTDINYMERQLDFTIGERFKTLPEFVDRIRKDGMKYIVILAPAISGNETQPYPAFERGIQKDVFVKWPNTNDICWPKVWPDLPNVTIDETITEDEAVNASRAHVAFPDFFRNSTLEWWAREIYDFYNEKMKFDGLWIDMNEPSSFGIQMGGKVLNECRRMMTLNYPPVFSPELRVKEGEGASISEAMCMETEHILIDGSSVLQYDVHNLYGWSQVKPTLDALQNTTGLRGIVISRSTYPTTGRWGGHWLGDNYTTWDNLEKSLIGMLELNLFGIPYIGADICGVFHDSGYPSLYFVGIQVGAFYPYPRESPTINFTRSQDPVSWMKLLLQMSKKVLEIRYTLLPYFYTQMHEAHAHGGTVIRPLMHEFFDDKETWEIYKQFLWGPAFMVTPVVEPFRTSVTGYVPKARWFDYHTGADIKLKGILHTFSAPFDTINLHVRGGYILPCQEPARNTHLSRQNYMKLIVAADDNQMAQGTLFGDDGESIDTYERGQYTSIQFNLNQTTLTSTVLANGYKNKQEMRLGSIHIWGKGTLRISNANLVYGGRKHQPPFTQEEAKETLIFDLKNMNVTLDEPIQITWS
T4 sequence (P23739 whole entry): as above

Row | Compound | IC50 [1] | IC50 (Rat intestinal maltase) | GM3 production (%) ([2]; 100 μM (MNTD)) | IC50 (Glucosyltransferase HL60) | IC50 [3] | IC50 [4] | IC50 [5] | IC50 (Rat intestinal sucrase) | EC50 (DENV2 strain 16681) | MNTD (maximum non-toxic dose tested) (MDMΦs) | IC50 [5, 6] | IC50 (Rat intestinal sucrase; [6]) | protection in lethal mouse models of DENV infection (DENV) | GM3 production (%) ([2]; 31.6 μM (MNTD)) | IC50 [3, 6] | IC50 [4, 6]
1 | O[C@H]1[C@H](O)[C@@H](O)CN2CC[C@H](O)[C@H]12 [Castanospermine, castanospermine] | 58.9 µM | 370 nM | 101.6 ± 6.7% | > 1 mM | > 1000 µM | 2000 nM | 6.1 µM | 280 nM | 36.4 µM | 100 µM | – | – | – | – | – | –
2 | OC[C@H]1NC[C@H](O)[C@@H](O)[C@H]1O [DGJ, 1-deoxygalactonojirimycin] | > 1000 µM | 362000 nM | – | – | – | – | – | – | – | – | > 1000 µM | 340000 nM | – | – | – | –
3 | OC[C@H]1NC[C@H](O)[C@@H](O)[C@@H]1O [DNJ, 1-Deoxynojirimycin] | 11.4 µM | 200 nM | – | – | – | – | – | – | 308 µM | 10000 µM | 0.8 µM | – | – | – | – | –
4 | COCCCCCCCCCN1C[C@H](O)[C@@H](O)[C@H](O)[C@H]1CO [MON-DNJ, N-(9-methoxynonyl)-DNJ] | – | – | – | – | – | – | – | – | – | – | – | – | protection in lethal mouse models | – | – | –
5 | CCCCCCCCCN1C[C@H](O)[C@@H](O)[C@H](O)[C@H]1CO [NN-DNJ] | 3.1 µM | 460 nM | – | – | – | – | – | – | 1.25 µM | 31.6 µM | 7.3 µM | 740 nM | – | 5.9 ± 1.2% | 765 µM | 140 nM
